Molecules are shown by their SMILES. ≈ marks a conversion by molar mass, not a printed value.

Data set [1] deals with T1, Cathepsin K (Homo sapiens, UniProt P43235).
T1 sequence (P43235 whole entry): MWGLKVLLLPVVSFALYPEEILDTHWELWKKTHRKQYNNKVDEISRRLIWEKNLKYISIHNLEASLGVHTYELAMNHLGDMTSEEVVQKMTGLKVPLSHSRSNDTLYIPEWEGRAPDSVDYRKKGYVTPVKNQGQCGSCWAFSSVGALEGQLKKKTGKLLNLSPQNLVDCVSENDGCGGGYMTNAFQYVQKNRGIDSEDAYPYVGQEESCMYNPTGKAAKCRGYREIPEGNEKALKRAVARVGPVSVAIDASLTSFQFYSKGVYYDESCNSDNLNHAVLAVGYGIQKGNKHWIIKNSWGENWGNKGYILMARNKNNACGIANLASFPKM
As to the kind of experiment: Inhibition of recombinant human cathepsin K in a fluorescence assay.

Another data set has as its target T2, Pro-cathepsin H (Homo sapiens, UniProt P09668).
T2 sequence (P09668 whole entry): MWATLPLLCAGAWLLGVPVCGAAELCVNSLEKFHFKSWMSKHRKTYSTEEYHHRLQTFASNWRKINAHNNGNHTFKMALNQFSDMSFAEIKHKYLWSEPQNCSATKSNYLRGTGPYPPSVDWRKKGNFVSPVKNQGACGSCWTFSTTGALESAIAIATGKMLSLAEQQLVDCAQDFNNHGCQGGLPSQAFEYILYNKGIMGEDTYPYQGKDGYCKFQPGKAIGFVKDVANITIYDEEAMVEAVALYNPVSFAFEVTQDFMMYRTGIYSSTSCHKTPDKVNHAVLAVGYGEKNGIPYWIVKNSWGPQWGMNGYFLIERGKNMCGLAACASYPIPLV
Nature of the data set: Inhibition of recombinant human cathepsin H in a fluorescence assay.

The species named for data set [2] is Rattus norvegicus. As to the kind of experiment: (§1) Volume of distribution in Han Wistar rat. In kind it is ADME, organism-based. As to conditions: in vivo.
Data set [3] is described as follows: Permeability across MDCK cells. In kind it is ADME, cell-based, Canis lupus familiaris. The conditions noted are these: dog.
A short description of data set [4]: Oral bioavailability in male Han Wistar rat. The data set is classed as ADME, organism-based. As to conditions: in vivo.
A short description of data set [5]: Solubility in fasted state-simulated intestinal fluid at pH 6.8. The data set is classed as physicochemical.
The subject of data set [6] is Rattus norvegicus. Nature of the data set: (§2) Terminal half life in iv dosed Han Wistar rat. In kind it is ADME, organism-based. As to conditions: in vivo.
A further data set has as its target Cathepsin B (Homo sapiens, UniProt P07858). Nature of the data set: Inhibition of recombinant human cathepsin B in a fluorescence assay.
The target in another data set is Procathepsin L (Homo sapiens, UniProt P07711). Nature of the data set: Inhibition of recombinant human cathepsin L in a fluorescence assay.
Procathepsin L, sequence (P07711 whole entry): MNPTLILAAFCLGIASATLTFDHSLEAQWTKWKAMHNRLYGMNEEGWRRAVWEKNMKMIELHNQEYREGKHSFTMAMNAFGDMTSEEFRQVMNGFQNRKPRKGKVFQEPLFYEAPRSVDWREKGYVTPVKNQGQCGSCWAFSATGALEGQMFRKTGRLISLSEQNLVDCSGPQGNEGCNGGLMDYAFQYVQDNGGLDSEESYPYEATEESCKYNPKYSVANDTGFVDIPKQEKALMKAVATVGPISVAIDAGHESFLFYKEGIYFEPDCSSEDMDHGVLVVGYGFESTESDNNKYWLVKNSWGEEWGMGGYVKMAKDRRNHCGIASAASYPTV
Data set [7] in a line: as §1. In kind it is ADME, organism-based. The conditions noted are these: Han Wistar, in vivo.
The nature of data set [8]: Clearance in Han Wistar rat. In kind it is ADME, organism-based. The conditions noted are these: in vivo.
Data set [9] is described as follows: as §2. In kind it is ADME, organism-based. As to conditions: Han Wistar, in vivo, read-out: beta t1/2.
Data set [10] deals with T3, Cathepsin K (Rattus norvegicus, UniProt O35186).
T3 sequence (O35186 whole entry): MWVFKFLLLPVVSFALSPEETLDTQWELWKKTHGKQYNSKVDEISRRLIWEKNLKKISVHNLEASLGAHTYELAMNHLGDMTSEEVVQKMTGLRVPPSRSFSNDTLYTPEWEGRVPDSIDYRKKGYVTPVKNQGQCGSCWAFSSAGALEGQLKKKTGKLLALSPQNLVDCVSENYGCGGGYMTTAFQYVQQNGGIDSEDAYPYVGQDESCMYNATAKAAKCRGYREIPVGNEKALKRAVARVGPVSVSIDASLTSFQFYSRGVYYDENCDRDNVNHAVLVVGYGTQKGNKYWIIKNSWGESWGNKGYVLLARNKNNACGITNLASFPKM
As to the kind of experiment: Inhibition of rat cathepsin K.

What is called IC50 is the point on the concentration scale where inhibition reaches its midpoint. For the compound `CCCC[C@@H](/C=N/N[N+]1=CSCC1)NC(=O)OC(C)(C)C`, on Cathepsin K [1], the IC50 turned out to be 470 nM.
As for `CCCC[C@@H](/C=N/NC(=O)NCCc1ccccc1)NC(=O)OC(C)(C)C`, the IC50 at Cathepsin K [1] was 260 nM.
As to `CCCC[C@@H](/C=N/OC(=O)N1CCOCC1)NC(=O)OC(C)(C)C`, the IC50 at Cathepsin K [1] is 1100 nM.
Consider `CCCC[C@@H](/C=N/NC(=O)OC(C)C)NC(=O)OC(C)(C)C`, for which the IC50 at Cathepsin K [1] worked out at 130 nM.
For `CCCC[C@@H](/C=N/NC(=O)N(CC)CC)NC(=O)OC(C)(C)C`, the concentration for half-maximal inhibition (IC50) on Cathepsin K [1] is 40 nM.
Regarding `CCCC[C@@H](C=O)NC(=O)O[C@@H](C)Cc1ccccc1`, the IC50 on Pro-cathepsin H worked out at 40 nM.
As usually defined, the Vdss is a proportionality between amount in the body and measured concentration, not a real space. Higher therefore signals extensive tissue distribution. As a reminder, the Papp is the rate of passage across a membrane or cell layer, normalised by area and donor concentration. A high value points to fast passage. The bioavailability is dose-corrected exposure relative to a reference, in per cent. Read a low bioavailability as poor availability. For orientation: solubility means the concentration that dissolves in the medium under given conditions. On to `CCCC[C@@H](/C=N/NC(=O)N1CCCC1)NC(=O)OC(C)(C)C`, for which, at Cathepsin K [1], the IC50 came to 36 nM. The Vdss in the data set filed under Rattus norvegicus [2] turned out to be 0.43 L/kg. In addition, in data set [3], the Papp was determined as 20 ×10⁻⁶ cm/s. The bioavailability in [4] is 0%. The solubility in [5] was 71 µg/mL (≈ 217 µM). Moreover, the “beta t1/2” value with Rattus norvegicus [6] is on record as 18 min.
As for `CCCC[C@@H](/C=N/NC(=O)Nc1ccccc1)NC(=O)OC(C)(C)C`, the IC50 on Cathepsin K [1] amounted to 400 nM.
As to `CCCC[C@@H](/C=N/NC(=O)N1CCc2ccccc21)NC(=O)OC1(Cc2ccccc2)CCCC1`, the IC50 on Cathepsin B was 1800 nM; at Cathepsin K [1], 1.1 nM; at Pro-cathepsin H it was above 13000 nM; at Procathepsin L it was 3400 nM.
For the compound `CCCC[C@@H](C=O)NC(=O)OC1(Cc2ccccc2)CCCC1`, the IC50 at Pro-cathepsin H is above 13000 nM.
Turning to `CCCC[C@@H](/C=N/NC(=O)CC(C)C)NC(=O)OC(C)(C)C`, the IC50 at Cathepsin K [1] is 200 nM.
Consider `CCCC[C@@H](/C=N/NC(=O)NCc1ccccc1)NC(=O)OC(C)(C)C`, for which the 50% inhibitory concentration (IC50) at Cathepsin K [1] was 410 nM.
For the compound `CCCC[C@@H](/C=N/NC(=O)N1CCOCC1)NC(=O)O[C@H](Cc1ccccc1)C(C)C`, the IC50 amounted to 18 nM on Cathepsin B, 0.33 nM at Cathepsin K [1], 190 nM at Pro-cathepsin H and 12 nM at Procathepsin L.
As for `CCCC[C@@H](/C=N/NC(=O)N1CCCCC1)NC(=O)OC(C)(C)C`, the IC50 on Cathepsin K [1] is 58 nM.
Consider `CCCC[C@@H](/C=N/NC(=O)C(F)(F)F)NC(=O)OC(C)(C)C`, for which the IC50 on Cathepsin K [1] came out at 24 nM.
On to `CCCC[C@@H](/C=N/NC(=O)N(C)C)NC(=O)OC(C)(C)C`, for which, at Cathepsin K [1], the IC50 amounted to 72 nM.
Turning to `CC(C)C[C@@H]([13CH]=O)NC(=O)OC(C)(C)C`, the IC50 on Cathepsin K [1] was found to be 31 nM.
Consider `CCCC[C@@H](/C=N/NC(=O)N1CCc2ccccc2C1)NC(=O)OC(C)(C)C`, for which the IC50 on Cathepsin K [1] came out at 93 nM.
In the case of `CCCC[C@@H](C=O)NC(=O)OC(C)(C)C`, the results for the IC50 on Cathepsin B, at Pro-cathepsin H and at Procathepsin L were 32000 nM, above 13000 nM and 8900 nM, respectively.
In the case of `CCCC[C@@H](/C=N/N=C(\S)NC(C)C)NC(=O)OC(C)(C)C`, the IC50 on Cathepsin K [1] was determined as 170 nM.
Turning to `CCCC[C@@H](/C=N/NC(=O)SC(C)C)NC(=O)OC(C)(C)C`, the IC50 at Cathepsin K [1] worked out at 830 nM.
Still for that read-out and setting: to `CCCC[C@@H](/C=N/NC(=O)N1CCCc2ccccc21)NC(=O)OC(C)(C)C` belongs 59 nM.
On to `CCCC[C@@H](/C=N/NC(=O)N(C)CCc1ccccc1)NC(=O)OC(C)(C)C`, for which the IC50 on Cathepsin K [1] worked out at 45 nM.
As to `CCCC[C@@H](/C=N/NC(=O)c1ccccc1)NC(=O)OC(C)(C)C`, the IC50 at Cathepsin K [1] came to 220 nM.
By Vd is commonly meant the apparent volume that relates the amount in the body to the concentration in plasma or blood. A lower Vd goes with little distribution into tissue. As a reminder, the clearance is the rate of elimination divided by the concentration. Low readings indicate inefficient removal, high ones efficient removal. For `CCCC[C@@H](/C=N/NC(=O)N1CCOCC1)NC(=O)OC(C)(C)C`, the IC50 at Cathepsin B is 32000 nM; at Cathepsin K [1], 35 nM; at Pro-cathepsin H, above 13000 nM; on Procathepsin L, 11000 nM. The same compound showed a distribution volume (Vd) in data set [7] of 0.57 L/kg. In data set [8], this compound displayed a clearance of 43 mL/min/kg. In data set [3], this compound showed a Papp of 6.2 ×10⁻⁶ cm/s. The same compound yielded a bioavailability in data set [4] of 3.9%. The amount in solution in data set [5] (solubility) came to 120 µg/mL (≈ 350 µM). Besides, in data set [9], the half-life is 22 min.
As to `CCCC[C@@H](/C=N/N=C(N)N)NC(=O)OC(C)(C)C`, on Cathepsin K [1], the IC50 worked out at 33000 nM.
Take `CCCC[C@@H](/C=N/NC(=O)NC)NC(=O)OC(C)(C)C`: on Cathepsin K [1], the IC50 is 280 nM.
Still for that read-out and setting: under `CCCC[C@@H](/C=N/NC(=O)NC(C)(C)C)NC(=O)OC(C)(C)C` stands 160 nM.
Still for that read-out and setting: under `CCCC[C@@H](/C=N/NC(=O)NCC)NC(=O)OC(C)(C)C` stands 490 nM; under `CC(C)C[C@@H](/[13CH]=N/NC(=O)N1CCOCC1)NC(=O)OC(C)(C)C`, 110 nM.
The same measure, in the same setting: to `CCCC[C@@H](/C=N/N(C)C(=O)NCCc1ccccc1)NC(=O)OC(C)(C)C` belongs 11000 nM.
Regarding `CCCC[C@@H](/C=N/NC(=O)N1CCOCC1)NC(=O)O[C@@H](C)Cc1ccccc1`, the IC50 was found to be 270 nM on Cathepsin B; 0.94 nM on Cathepsin K [1]; 130 nM on Cathepsin K [10]; 230 nM at Pro-cathepsin H; 540 nM on Procathepsin L. Further, the Vdss in the data set listed under Rattus norvegicus [2] was determined as 0.22 L/kg. The Papp in [3] stood at 14 ×10⁻⁶ cm/s. Further, the bioavailability in data set [4] came out at 0%. Also, the concentration in solution in data set [5] (solubility) was 60 µg/mL (≈ 148 µM). Also, in the data set with Rattus norvegicus [6], the “beta t1/2” value amounted to 9 min.
For the compound `CCCC[C@@H](/C=N/NS(=O)(=O)N(C)C)NC(=O)OC(C)(C)C`, on Cathepsin K [1], the IC50 was found to be 72 nM. In [7], the Vd came to 0.39 L/kg. In data set [8], the clearance stood at 25 mL/min/kg. The compound also registered an apparent permeability coefficient (Papp) in data set [3] of 77 ×10⁻⁶ cm/s. In [4], this compound registered a bioavailability of 26%. In [5], the solubility is 380 µg/mL (≈ 1130 µM). Besides, the half-life in data set [9] is 39 min.
On to `CCCC[C@@H](C=O)NC(=O)O[C@H](Cc1ccccc1)C(C)C`, for which the IC50 came out at 27 nM on Cathepsin B, 18 nM on Pro-cathepsin H and 12 nM on Procathepsin L.
For the compound `CCCC[C@@H](/C=N/NC(=O)NC(C)C)NC(=O)OC(C)(C)C`, on Cathepsin K [1], the IC50 came out at 170 nM.
For `CCCC[C@@H](/C=N/NC(=O)N1CCc2ccccc21)NC(=O)OC(C)(C)C`, the IC50 was 35000 nM on Cathepsin B, 48 nM on Cathepsin K [1], above 13000 nM on Pro-cathepsin H and 14000 nM on Procathepsin L. In the data set listed under Rattus norvegicus [2], this compound showed a Vdss of 0.54 L/kg. The same compound returned a Papp in data set [3] of 15 ×10⁻⁶ cm/s. The bioavailability in [4] worked out at 0%. The compound further registered a solubility in data set [5] of 33 µg/mL (≈ 88.1 µM). In addition, the “beta t1/2” value with Rattus norvegicus [6] amounted to 10 min.
As for `CCCC[C@@H](/C=N/NC(=O)NC(=O)OC)NC(=O)OC(C)(C)C`, on Cathepsin K [1], the IC50 worked out at 180 nM.
On to `CCCC[C@@H](/C=N/NC(N)=O)NC(=O)OC(C)(C)C`, for which the IC50 on Cathepsin K [1] is 350 nM.
On to `CCCC[C@@H](/C=N/N(C)C(=O)N(C)CCc1ccccc1)NC(=O)OC(C)(C)C`, for which, at Cathepsin K [1], the IC50 came to 520 nM.
With `CCCC[C@@H](/C=N/NC(=O)NCCC(=O)OCC)NC(=O)OC(C)(C)C`, the IC50 on Cathepsin K [1] worked out at 470 nM.
On to `CCCC[C@@H](/C=N/NC(=O)NCC(=O)OCC)NC(=O)OC(C)(C)C`, for which the IC50 at Cathepsin K [1] is 520 nM.

Values taken from ChEMBL document CHEMBL1138109, “Semicarbazone-based inhibitors of cathepsin K, are they prodrugs for aldehyde inhibitors?” (Bioorg Med Chem Lett, 2006).
